ChEMBL document CHEMBL5143721, “Novel Hydroxychalcone-Based Dual Inhibitors of Aldose Reductase and α-Glucosidase as Potential Therapeutic Agents against Diabetes Mellitus and Its Complications” (J Med Chem, 2022)
Active and inactive are the calls of the source. No cut-off for these calls is given here.

Key:
[1] = Inhibition of Wistar rat kidney ALR1 using sodium D-glucuronate as substrate preincubated for 10 mins in presence of NADPH followed by substrate addition and measured after 4 mins; type: tissue-based
[2] = species on record: Rattus norvegicus; assay: Selectivity index, ratio of IC50 for Wistar rat kidney ALR1 to IC50 for Wistar rat lens ALR2
[3] = Inhibition of Saccharomyces cerevisiae Alpha-glucosidase using p-nitrophenyl glucopyranoside as substrate preincubated for 5 mins followed by substrate addition and measured for 30 mins
[4] = Inhibition of Wistar rat lens ALR2 using D,L-glyceraldehyde as substrate preincubated for 10 mins in presence of NADPH followed by substrate addition and measured after 4 mins; type: tissue-based
[5] = tested on: Brain; assay: Antioxidant activity in rat brain homogenate assessed as inhibition of lipid peroxidation by measuring MDA concentration at 5 uM by TBARS assay relative to control; type: functional, tissue-based; set-up: scale not given: the % may be the effect or the level left
[6] = Octanol/buffer distribution coefficient, log D of compound at pH 7.4 incubated for 24 hrs by shake flask based HPLC method; type: physicochemical
[7] = tested on: Rattus norvegicus; assay: Antidiabetic activity against STZ-induced diabetic Sprague-Dawley rat model assessed as reduction in fasting blood glucose level at 160 mg/kg, IG administered once daily for 28 days; type: functional; set-up: scale not given: the % may be the effect or the level left; conditions: time 28 day
[8] = Antioxidant activity assessed as DPPH radical scavenging activity at 5 uM incubated for 30 mins by DPPH assay relative to control; type: functional
[9] = tested on: Brain; assay: Antioxidant activity in rat brain homogenate assessed as inhibition of lipid peroxidation by measuring MDA concentration at 10 uM relative to control; type: functional, tissue-based; set-up: scale not given: the % may be the effect or the level left
[10] = tested on: Rattus norvegicus; assay: Antidiabetic activity against STZ-induced diabetic Sprague-Dawley rat model assessed as increase in liver glycogen levels at 160 mg/kg, IG administered once daily for 28 days; type: functional; conditions: time 28 day
[11] = tested on: Rattus norvegicus; assay: Antidiabetic activity against STZ-induced diabetic Sprague-Dawley rat model assessed as reduction in triglycerides level in serum at 160 mg/kg, IG administered once daily for 28 days relative to control; type: functional; set-up: scale not given: the % may be the effect or the level left; conditions: time 28 day
[12] = tested on: Rattus norvegicus; assay: Antidiabetic activity against 12 hrs fasted STZ-induced diabetic Sprague-Dawley rat model assessed as reduction in blood glucose level at 160 mg/kg, IG administered once daily for 28 days followed by glucose addition after 30 mins post cpd treatment and measured after 30 mins post glucose treatment by oral glucose tolerance test; type: functional, organism-based; conditions: time 673.0 hrs
[13] = Antioxidant activity assessed as DPPH radical scavenging activity at 50 uM incubated for 30 mins by DPPH assay relative to control; type: functional
[14] = tested on: Brain; assay: Antioxidant activity in rat brain homogenate assessed as inhibition of lipid peroxidation by measuring MDA concentration at 1 uM by TBARS assay relative to control; type: functional, tissue-based; set-up: scale not given: the % may be the effect or the level left
[15] = In vivo inhibition of ALR2 in STZ-induced diabetic Sprague-Dawley rat model assessed as reduction in ALR2 activity in lens at 160 mg/kg, IG administered once daily for 28 days relative to control; type: functional; set-up: scale not given: the % may be the effect or the level left; conditions: time 28 day
[16] = tested on: Brain; assay: Antioxidant activity in rat brain homogenate assessed as inhibition of lipid peroxidation by measuring MDA concentration at 50 uM by TBARS assay relative to control; type: functional, tissue-based; set-up: scale not given: the % may be the effect or the level left
[17] = tested on: HEK-293T; assay: Cytotoxicity against HEK293T cells at 15 to 200 micromol/L by MTT assay; type: toxicity, cell-based; conditions: human, dose 15-200 µmol/L
[18] = Antioxidant activity assessed as DPPH radical scavenging activity at 100 uM incubated for 30 mins by DPPH assay relative to control; type: functional
[19] = tested on: Rattus norvegicus; assay: Antidiabetic activity against STZ-induced diabetic Sprague-Dawley rat model assessed as reduction in total cholesterol level in serum at 160 mg/kg, IG administered once daily for 28 days relative to control; type: functional; set-up: scale not given: the % may be the effect or the level left; conditions: time 28 day
[20] = tested on: Brain; assay: Antioxidant activity in rat brain homogenate assessed as inhibition of lipid peroxidation by measuring MDA concentration at 100 uM by TBARS assay relative to control; type: functional, tissue-based; set-up: scale not given: the % may be the effect or the level left
[21] = tested on: Rattus norvegicus; assay: Antidiabetic activity against 12 hrs fasted STZ-induced diabetic Sprague-Dawley rat model assessed as reduction in AUC of blood glucose level at 160 mg/kg, IG administered once daily for 28 days followed by maltose addition after 30 mins post cpd treatment and measured after 30 mins post maltose treatment; type: functional; set-up: scale not given: the % may be the effect or the level left; conditions: time 673 hrs
[22] = tested on: Rattus norvegicus; assay: Antidiabetic activity against STZ-induced diabetic Sprague-Dawley rat model assessed as reduction in triglycerides level in liver at 160 mg/kg, IG administered once daily for 28 days relative to control; type: functional; set-up: scale not given: the % may be the effect or the level left; conditions: time 28 day
[23] = Antioxidant activity assessed as DPPH radical scavenging activity at 10 uM incubated for 30 mins by DPPH assay relative to control; type: functional
[24] = Antioxidant activity assessed as DPPH radical scavenging activity at 1 uM incubated for 30 mins by DPPH assay relative to control; type: functional
[25] = In vivo inhibition of ALR2 in STZ-induced diabetic Sprague-Dawley rat model assessed as reduction in ALR2 activity in lens at 80 mg/kg, IG administered once daily for 28 days relative to control; type: functional; set-up: scale not given: the % may be the effect or the level left; conditions: time 28 day
[26] = tested on: Rattus norvegicus; assay: Antidiabetic activity against STZ-induced diabetic Sprague-Dawley rat model assessed as reduction in fasting blood glucose level at 80 mg/kg, IG administered once daily for 28 days; type: functional; set-up: scale not given: the % may be the effect or the level left; conditions: time 28 day

SMILES	IC50 [1] [µM]	Ratio IC50 [2]	IC50 [3] [µM]	IC50 [4] [µM]	logD at 24 h [6]	Activity [13] [%]	Activity [16] [%]	Activity [18] [%]	Activity [20] [%]	Activity [23] [%]	other results
O=C(/C=C/c1ccc(O)c(F)c1)c1cccc2[nH]c(=O)oc12	3.75	1.19	105	3.74	–	–	–	–	–	–	–
COC(=O)Cn1c(=O)oc2c(C(=O)/C=C/c3ccc(O)c(OC)c3)cccc21	> 100	> 7.59	–	13.2	–	82.2	43	92.4	66.1	50.3	Activity [8]: 25.4%; Activity [9]: 23.6%; Activity [24]: 14.8%
COC(=O)Cn1c(=O)oc2c(C(=O)/C=C/c3ccc(OC)cc3)cccc21	> 100	–	–	> 100	–	–	–	–	–	–	–
COC(=O)Cn1c(=O)oc2cc(/C=C/c3ccc(O)cc3)ccc21	–	–	–	72.2	–	–	–	–	–	–	–
O=C(/C=C/c1ccc(O)c(C(F)(F)F)c1)c1cccc2[nH]c(=O)oc12	> 100	–	–	> 100	–	–	–	–	–	–	–
COC(=O)Cn1c(=O)oc2ccc(/C=C/c3ccc(O)cc3)cc21	–	–	–	> 100	–	–	–	–	–	–	–
COc1ccc(/C=C/C(=O)c2cccc3[nH]c(=O)oc23)cc1	> 100	–	–	> 100	–	–	–	–	–	–	–
COC(=O)Cn1c(=O)oc2c(C(=O)/C=C/c3cccc(O)c3)cccc21	> 100	–	–	> 100	–	–	–	–	–	–	–
O=c1[nH]c2cccc(/C=C/c3ccc(O)cc3)c2o1	–	–	–	495	–	–	–	–	–	–	–

The next compounds have a lower IC50 [4] than those just listed; values first:

IC50 [1] [µM]	Ratio IC50 [2]	IC50 [3] [µM]	IC50 [4] [µM]	logD at 24 h [6]	SMILES	Activity [13] [%]	Activity [16] [%]	Activity [18] [%]	Activity [20] [%]	Activity [23] [%]	other results
> 100	> 35.1	104	2.85	–	O=C(/C=C/c1ccc(O)cc1)c1cccc2[nH]c(=O)oc12	–	–	–	–	–	–
> 100	> 193	57.2	0.518	1.31	COC(=O)Cn1c(=O)oc2c(C(=O)/C=C/c3ccc(O)c(F)c3)cccc21	19.2	25.4	40.1	40.1	5.09	–
7.48	39.7	–	0.149	0.98	CC(C)=CCn1c(=O)oc2c(C(=O)/C=C/c3ccc(O)c(O)c3)cccc21	96	90.7	98	97	93	Activity [5]: 52%; Activity [7]: 20.7%; Activity [8]: 90.9%; Activity [9]: 65.8%; Activity [10]: 43.83%; Activity [11]: 64.3%; Activity [12]: Active; Activity [14]: 35%; Activity [15]: 47.2%; Activity [17]: Non-Toxic; Activity [19]: 50.7%; Activity [21]: 21.16%; Activity [22]: 32.8%; Activity [24]: 41.2%
5.29	44.5	–	0.119	0.21	CC(/C=C1\SC(=S)N(CC(=O)O)C1=O)=C\c1ccccc1	–	–	–	–	–	Activity [25]: 62.1%; Activity [26]: 20.9%
7.84	70.7	71.2	0.111	1.07	COC(=O)Cn1c(=O)oc2c(C(=O)/C=C/c3cc(F)c(O)c(F)c3)cccc21	35	20.9	52.9	28	9.1	–
4.75	49	59.9	0.097	1.13	CC(C)=CCn1c(=O)oc2c(C(=O)/C=C/c3cc(F)c(O)c(F)c3)cccc21	35	25.9	52.9	38.3	9.1	–
